According to patent US9856298B2 (priority 2011, dated 2018):
≈ marks a conversion by molar mass, not a printed value. Numbered stars: 1 amine (or outer) side, 2 acyl side, 3 side chain; on linkers, the order of the positions; unused ones are H or OH. Square brackets hold non-standard residues; d marks the D form. Primed or numbered codes have the meaning given here. Side chains are listed from the residue outwards. Ends that are not written are not given here. Peptide text beside a SMILES is read from it. * marks the point of attachment. Orn(α-tetramethylguanidino) = CN(C)C(=N[C@@H](CCCN)C(=O)*)N(C)C; δOrn(α-TMG) = CN(C)C(=N[C@@H](CCCN[*:1])C(=O)[*:2])N(C)C; Guan″ = guanidino group at the N-terminus, N=C(N)*; sPEG750 = PEG of 750 linked via acid group; Hyp = O=C(O)[C@@H]1C[C@@H](O)CN1; Tle = CC(C)(C)[C@H](N)C(=O)O; Orn = NCCC[C@H](N)C(=O)O

Legend:
[1] = mammalian serum (25%); cited from earlier work
[2] = test system: Escherichia coli strain BL21AI; assay: Minimum inhibitory concentration in TSB in the presence of 25% mouse serum; format: cell-based; details: E. coli BL21AI, TSB with 25% mouse serum, 20 hours at 37° C.
Procedure: (§1) To that end, the peptides were dissolved in water and diluted in a two-fold dilution series with 1% aqueous soybean medium (TSB) in sterile 96-well plates (Greiner Bio-One GmbH) from 128 μg/ml in twelve dilution steps to 62.5 ng/ml. Overnight cultures of Escherichia coli strain BL21AI were adjusted with 1% TSB to about […] colony forming units per ml. In each case 50 μl of peptide solution per well were then mixed with in each case 50 μl of the bacteria solution, in order to achieve a starting concentration of 4×10^5 bacteria per well. After incubation for 20 hours at 37° C., the absorption at 595 nm was determined (microplate reader, TECAN Trading AG).
In addition, the antibacterial activity was also determined in the presence of 25% mouse serum. To that end, the MIC values were determined as described above, but 25 μl of mouse serum were also added to each well before the incubation (25% final concentration).

[3] = test system: Escherichia coli strain BL21AI; assay: Minimum inhibitory concentration in 1% TSB; format: cell-based; details: for MIC in TSB: E. coli BL21AI, 1% TSB, 20 hours at 37° C.; for Effect of peptide linker or remaining linker residues on the MIC: compared with the unmodified peptide
Procedure: as §1

[4] = Serum stability / release of peptide in pure mouse serum (100%) (RP-HPLC, MALDI-MS)
Procedure: (§2) 30 μl of a 1 mg/ml peptide solution were diluted with 120 μl of water and, after addition of 50 of serum, incubated at 37° C. for 0 hours, 0.5 hour, 1 hour, 2 hours or 4 hours. Alternatively, the peptide derivatives having a starting concentration of 3 mg/ml were diluted with serum to a final concentration of 15 μg/ml. According to the stability of the peptides, the samples were analysed at the times mentioned above or after 0 hours, 4 hours and 6 hours. The serum proteins were precipitated by addition of 50 μl of 15% TCA, and the supernatant was neutralised with 25 μl of 1 mol/l NaOH. The samples were made up to 250 μl with 5% B, 230 μl of the solution were transferred into a HPLC vial, and 220 μl were injected.
(§3) RP-HPLC analysis was carried out with a linear acetonitrile gradient (Biosolve BV, Valkenswaard, Netherlands) in the presence of 0.1% trifluoroacetic acid (TFA, UV grade, Fluka Chemie GmbH, Buchs, Switzerland) as ion-pair reagent. The fractions were co-crystallised with α-cyanohydroxycinnamic acid (Bruker Daltonik GmbH; Bremen, Germany) as matrix (4 mg/ml in 60% acetonitrile in 0.1% aqueous TFA) and analysed with a tandem mass spectrometer (MALDI-TOF/TOF-MS, 4700 Proteomics Analyzer; Applied Biosystems GmbH, Weiterstadt, Germany) in positive-ion reflector mode. The amount of intact peptides and their degradation products or metabolites could thus be identified and quantified at the individual times. 25% aqueous mouse serum, which was analysed in parallel for the same time intervals, was used as control.

25% aqueous mouse serum = details: 37° C., up to 6 hours
[5] = Serum stability / release of peptide in 25% aqueous mouse serum (RP-HPLC, MALDI-MS); details: 25% (v/v) aqueous mouse serum
Procedure: as §2, §3

[6] = mouse
Procedure: as §2, §3

GKPRPYSPRPTSHPRPIRV [drosocin]
Time to degradation in mammalian serum [1]: degraded within an hour

CC(C)C[C@H](NC(=O)[C@H](Cc1ccc(O)cc1)NC(=O)[C@@H]1CCCN1C(=O)[C@@H]1CCCN1C(=O)[C@H](CCCCN)NC(=O)[C@H](CC(=O)O)NC(=O)[C@@H](NC(=O)[C@H](CCCNC(=N)N)NC(=O)[C@H](C)NC(=O)CN)C(C)C)C(=O)N1CCC[C@H]1C(=O)N[C@@H](CCCNC(=N)N)C(=O)N1CCC[C@H]1C(=O)N[C@@H](CCCNC(=N)N)C(=O)N1CCC[C@H]1C(=O)N1C[C@H](O)C[C@H]1C(=O)N[C@@H](CCCNC(=N)N)C(=O)N1C[C@H](O)C[C@H]1C(=O)N[C@H](C(=O)N[C@@H](Cc1ccc(O)cc1)C(=O)N[C@@H](CC(N)=O)C(=O)N[C@@H](CCCN)C(N)=O)C(C)(C)C [GAR-Onc 110] (H-GARVDKPPYLPRPRP[Hyp]R[Hyp][Tle]YN[Orn]-NH2)
MIC in TSB/mouse serum [2]: 0.65 µM | MIC in TSB [3]: 1.5 µM (≈ 3.91 µg/mL) | Effect of peptide linker or remaining linker residues on the MIC [3]: does not increase the MIC or increases it only insignificantly | remaining at 4 h, 15 µg/ml ([4]; mouse, pure (100%) mouse serum): 75%

Guan-O(sPEG^750-GARSG)NNRPVYIPRPRPPHPRL-OH
cleaved bond (25% aqueous mouse serum): R-S

CC[C@H](C)[C@H](NC(=O)[C@H](Cc1ccc(O)cc1)NC(=O)[C@@H](NC(=O)[C@@H]1CCCN1C(=O)[C@H](CCCNC(=N)N)NC(=O)[C@H](CC(N)=O)NC(=O)[C@H](CC(N)=O)NC(=O)[C@H](CCCN)N=C(N(C)C)N(C)C)C(C)C)C(=O)N1CCC[C@H]1C(=O)N[C@@H](CCCNC(=N)N)C(=O)N1CCC[C@H]1C(=O)N[C@@H](CCCNC(=N)N)C(=O)N1CCC[C@H]1C(=O)N1CCC[C@H]1C(=O)N[C@@H](Cc1c[nH]cn1)C(=O)N1CCC[C@H]1C(=O)N[C@@H](CCCNC(=N)N)C(=O)N[C@@H](CC(C)C)C(=O)O [Api 137, Guan-ONNRPVYIPRPRPPHPRL-OH, reference compound] ({Orn(α-tetramethylguanidino)}-NNRPVYIPRPRPPHPRL-OH)
MIC in TSB/mouse serum [2]: 0.23 µM | MIC in TSB [3]: 0.46 µM (≈ 1.05 µg/mL) | half-life at 150 µg/ml [5]: > 6 h

tPEG^750-GAR-VDKPPYLPRPRPPROIYNO-NH2 (tPEG750-GARVDKPPYLPRPRPPR[Orn]IYN[Orn]-NH2; not fully specified; printed as tPEG^750-GAR-VDKPPYLPRPRPPROIYNO-NH2) [tPEG^750-GAR-Onc 72]
MIC in TSB [3]: 24.3 µM | uncleaved peptide remaining after the indicated time (instead of half-life) ([4]; pure mouse serum, 6 h): 55%

Guan-O(sPEG^750-GRSG)NNRPVYIPRPRPPHPRL-OH
cleaved bond (25% aqueous mouse serum): R-S

Guan-O(sPEG^750-GRSG)NNRPVYIPRPRPPHPRL-OH ({Guan″}-[Orn]([Gly-Ser-Arg-Gly-sPEG750])NNRPVYIPRPRPPHPRL-OH) [Api 137 (sPEG^750-GRSG)]
Half-life (t1/2) in 25% serum [6]: 2 h

CC[C@H](C)[C@H](NC(=O)[C@H](Cc1ccc(O)cc1)NC(=O)[C@@H](NC(=O)[C@@H]1CCCN1C(=O)[C@H](CCCNC(=N)N)NC(=O)[C@H](CC(N)=O)NC(=O)[C@H](CCCNC(=O)CNC(=O)[C@@H](N)CO)NC(=O)[C@H](CCCN)N=C(N(C)C)N(C)C)C(C)C)C(=O)N1CCC[C@H]1C(=O)N[C@@H](CCCNC(=N)N)C(=O)N1CCC[C@H]1C(=O)N[C@@H](CCCNC(=N)N)C(=O)N1CCC[C@H]1C(=O)N1CCC[C@H]1C(=O)N[C@@H](Cc1c[nH]cn1)C(=O)N1CCC[C@H]1C(=O)N[C@@H](CCCNC(=N)N)C(=O)N[C@@H](CC(C)C)C(=O)O [Api 300 (SG)] ({Orn(α-tetramethylguanidino)}-[Orn]([Gly-Ser])NRPVYIPRPRPPHPRL-OH)
MIC in TSB/mouse serum [2]: 0.21 µM | MIC in TSB [3]: 0.8 µM (≈ 1.95 µg/mL) | Effect of peptide linker or remaining linker residues on the MIC [3]: does not increase the MIC or increases it only insignificantly | half-life at 15 µg/ml ([4]; mouse, pure (100%) mouse serum): 4 h

CC[C@H](C)[C@H](NC(=O)[C@H](Cc1ccc(O)cc1)NC(=O)[C@@H](NC(=O)[C@@H]1CCCN1C(=O)[C@H](CCCNC(=N)N)NC(=O)[C@H](CCCNC(=O)CNC(=O)[C@@H](N)CO)NC(=O)[C@H](CC(N)=O)NC(=O)[C@H](CCCN)N=C(N(C)C)N(C)C)C(C)C)C(=O)N1CCC[C@H]1C(=O)N[C@@H](CCCNC(=N)N)C(=O)N1CCC[C@H]1C(=O)N[C@@H](CCCNC(=N)N)C(=O)N1CCC[C@H]1C(=O)N1CCC[C@H]1C(=O)N[C@@H](Cc1c[nH]cn1)C(=O)N1CCC[C@H]1C(=O)N[C@@H](CCCNC(=N)N)C(=O)N[C@@H](CC(C)C)C(=O)O [Api 301 (SG)] ({Orn(α-tetramethylguanidino)}-N[Orn]([Gly-Ser])RPVYIPRPRPPHPRL-OH)
MIC in TSB [3]: 1.6 µM (≈ 3.9 µg/mL) | Effect of peptide linker or remaining linker residues on the MIC [3]: does not increase the MIC or increases it only insignificantly | remaining at 4 h, 15 µg/ml ([4]; mouse, pure (100%) mouse serum): 60%

CC[C@H](C)[C@H](NC(=O)[C@H](Cc1ccc(O)cc1)NC(=O)[C@@H](NC(=O)[C@@H]1CCCN1C(=O)[C@H](CCCNC(=N)N)NC(=O)[C@H](CC(N)=O)NC(=O)[C@H](CC(N)=O)NC(=O)[C@H](CCCNC(=O)CNC(=O)[C@H](CO)NC(=O)[C@H](CCCNC(=N)N)NC(=O)[C@H](C)NC(=O)CN)N=C(N(C)C)N(C)C)C(C)C)C(=O)N1CCC[C@H]1C(=O)N[C@@H](CCCNC(=N)N)C(=O)N1CCC[C@H]1C(=O)N[C@@H](CCCNC(=N)N)C(=O)N1CCC[C@H]1C(=O)N1CCC[C@H]1C(=O)N[C@@H](Cc1c[nH]cn1)C(=O)N1CCC[C@H]1C(=O)N[C@@H](CCCNC(=N)N)C(=O)N[C@@H](CC(C)C)C(=O)O [Api 137 (GARSG)] (H-GARSG[δOrn(α-TMG)]NNRPVYIPRPRPPHPRL-OH)
MIC in TSB [3]: 0.9 µM (≈ 2.45 µg/mL) | half-life at 150 µg/ml [5]: 0.5 h

sPEG^750-GAR-VDKPPYLPRPRPPROIYNO-NH2 (sPEG750-GARVDKPPYLPRPRPPR[Orn]IYN[Orn]-NH2) [sPEG^750-GAR-Onc 72]
MIC in TSB/mouse serum [2]: 6.1 µM | MIC in TSB [3]: 12.2 µM | Half-life (t1/2) in serum ([4]; pure mouse serum, 37° C.): 6 h

Guan-O(sPEG^750-GARSG)NNRPVYIPRPRPPHPRL-OH ({Guan″}-[Orn]NNRPVYIPRPRPPHPRL-OH; not fully specified (residue 1)) [Api 137 (sPEG^750-GARSG)]
MIC in TSB [3]: 1.1 µM | Half-life (t1/2) in 25% serum [6]: 1 h

Guan-O(GARSG)NNRPVYIPRPRPPHPRL-OH (H-GARSG[δOrn(α-TMG)]NNRPVYIPRPRPPHPRL-OH; SMILES CC[C@H](C)[C@H](NC(=O)[C@H](Cc1ccc(O)cc1)NC(=O)[C@@H](NC(=O)[C@@H]1CCCN1C(=O)[C@H](CCCNC(=N)N)NC(=O)[C@H](CC(N)=O)NC(=O)[C@H](CC(N)=O)NC(=O)[C@H](CCCNC(=O)CNC(=O)[C@H](CO)NC(=O)[C@H](CCCNC(=N)N)NC(=O)[C@H](C)NC(=O)CN)N=C(N(C)C)N(C)C)C(C)C)C(=O)N1CCC[C@H]1C(=O)N[C@@H](CCCNC(=N)N)C(=O)N1CCC[C@H]1C(=O)N[C@@H](CCCNC(=N)N)C(=O)N1CCC[C@H]1C(=O)N1CCC[C@H]1C(=O)N[C@@H](Cc1c[nH]cn1)C(=O)N1CCC[C@H]1C(=O)N[C@@H](CCCNC(=N)N)C(=O)N[C@@H](CC(C)C)C(=O)O)
cleaved bond (25% aqueous mouse serum): R-S

CC[C@H](C)[C@H](NC(=O)[C@H](Cc1ccc(O)cc1)NC(=O)[C@@H](NC(=O)[C@@H]1CCCN1C(=O)[C@H](CCCNC(=N)N)NC(=O)[C@H](CC(N)=O)NC(=O)[C@H](CC(N)=O)NC(=O)[C@H](CCCNC(=O)CNC(=O)[C@H](CO)NC(=O)[C@H](CCCNC(=N)N)NC(=O)CN)N=C(N(C)C)N(C)C)C(C)C)C(=O)N1CCC[C@H]1C(=O)N[C@@H](CCCNC(=N)N)C(=O)N1CCC[C@H]1C(=O)N[C@@H](CCCNC(=N)N)C(=O)N1CCC[C@H]1C(=O)N1CCC[C@H]1C(=O)N[C@@H](Cc1c[nH]cn1)C(=O)N1CCC[C@H]1C(=O)N[C@@H](CCCNC(=N)N)C(=O)N[C@@H](CC(C)C)C(=O)O [Api 137 (GRSG)] (H-GRSG[δOrn(α-TMG)]NNRPVYIPRPRPPHPRL-OH)
MIC in TSB [3]: 0.7 µM (≈ 1.85 µg/mL) | half-life at 150 µg/ml [5]: 1 h

CC[C@H](C)[C@H](NC(=O)[C@H](CCCN)NC(=O)[C@H](CCCNC(=N)N)NC(=O)[C@@H]1CCCN1C(=O)[C@@H]1CCCN1C(=O)[C@H](CCCNC(=N)N)NC(=O)[C@@H]1CCCN1C(=O)[C@H](CCCNC(=N)N)NC(=O)[C@@H]1CCCN1C(=O)[C@H](CC(C)C)NC(=O)[C@H](Cc1ccc(O)cc1)NC(=O)[C@@H]1CCCN1C(=O)[C@@H]1CCCN1C(=O)[C@H](CCCCN)NC(=O)[C@H](CC(=O)O)NC(=O)[C@@H](NC(=O)[C@H](CCCNC(=N)N)NC(=O)[C@H](C)NC(=O)CN)C(C)C)C(=O)N[C@@H](Cc1ccc(O)cc1)C(=O)N[C@@H](CC(N)=O)C(=O)N[C@@H](CCCN)C(N)=O [GAR-Onc 72, GAR-VDKPPYLPRPRPPROIYNO-NH2] (H-GARVDKPPYLPRPRPPR[Orn]IYN[Orn]-NH2)
MIC in TSB [3]: 3.1 µM (≈ 8.03 µg/mL) | Effect of peptide linker or remaining linker residues on the MIC [3]: does not increase the MIC or increases it only insignificantly | remaining at 4 h, 15 µg/ml ([4]; mouse, pure (100%) mouse serum): 85%
